# Where two headings read alike, the source gives them in different places.
# Assay: Drug concentration in serum and tissues by LC-MS, pharmacokinetics and BBB permeability
# Type: in vivo, mice
# Settings: for concentration in CL brain: contralateral non-ischemic hemisphere; for concentration in CL brain / AUC(0-t) / concentration at 5 min / concentration at 10 min / concentration at 30 min / concentration at 1 h / concentration at 2 h / concentration at 6 h: mean ± SD; for Kp / half-life / AUC(0-t) / concentration at 5 min / concentration at 10 min / concentration at 30 min / concentration at 1 h / concentration at 2 h / concentration at 6 h: C57BL/6, mouse; for Kp / half-life / AUC(0-t): iv; for Kp: mean AUC0–6 h ratio, read-out: Kp (brain-serum ratio, AUCbrain/AUCserum); for half-life: read-out: t1/2 (elimination half-life) (converted); for AUC(0-t): read-out: AUC0–6 h; for concentration at 5 min / concentration at 10 min / concentration at 30 min / concentration at 1 h / concentration at 2 h / concentration at 6 h: intravenous
# Protocol: The mice were intravenously injected with 15 mg/kg TJ-5 at the time of reperfusion 1 h after MCAO or Sham. The mice were then anesthetized at 5 min, 10 min, 30 min, 1 h, and 2 h, or 6 h post-dosing. Blood was collected to prepare serum samples, and the ipsilateral ischemic hemisphere (IL brain), contralateral non-ischemic hemisphere (CL brain), heart, and liver samples were obtained after transcardial perfusion with 0.9% saline. Liquid chromatography-mass spectrometry (LC-MS) was performed to determine the concentration of TJ-5 in the samples. The time-concentration curve, area under the curve (AUC), and pharmacokinetic (PK) parameters of TJ-5 were analyzed using the PKslover 2.0 PK software ([Zhang et al., 2010]). BBB permeability was evaluated using the brain-to-serum partition coefficient (Kp), which was calculated as AUCbrain/AUCserum.
smiles,measurement,setting,value
O=C(CCN1CCN(Cc2ccccc2)CC1)Nc1nc(-c2ccccc2)cs1 [TJ-5],concentration in CL brain,"15 mg/kg i.v. at reperfusion 1 h after MCAO, 5 min",5877.53 ± 989.32 ng/g
same,concentration in CL brain,"15 mg/kg i.v. at reperfusion 1 h after MCAO, 10 min",5364.30 ± 749.83 ng/g
same,concentration in CL brain,"15 mg/kg i.v. at reperfusion 1 h after MCAO, 30 min",2480.87 ± 985.41 ng/g
same,concentration in CL brain,"15 mg/kg i.v. at reperfusion 1 h after MCAO, 1 h",1662.40 ± 117.03 ng/g
same,concentration in CL brain,"15 mg/kg i.v. at reperfusion 1 h after MCAO, 2 h",347.65 ± 55.25 ng/g
same,concentration in CL brain,"15 mg/kg i.v. at reperfusion 1 h after MCAO, 6 h",10.43 ± 5.69 ng/g
same,BBB permeability,"15 mg/kg i.v., brain vs serum concentrations",good BBB permeability
same,Kp,"CL brain (contralateral non-ischemic hemisphere) / serum, 15 mg/kg i.v., CL brain",5.21
same,Kp,"IL brain (ipsilateral ischemic hemisphere) / serum, 15 mg/kg i.v., IL brain",5.58
same,Kp,"brain (Sham) / serum, 15 mg/kg i.v., Sham brain",4.98
same,half-life,"contralateral non-ischemic hemisphere (CL brain), 15 mg/kg i.v., CL brain",24.6 min
same,AUC(0-t),"contralateral non-ischemic hemisphere (CL brain), 15 mg/kg i.v., CL brain, tissue density assumed 1 g/ml",4790 ± 353 ng·h/mL
same,concentration at 5 min,"15 mg/kg i.v., Sham brain, 5 min, read-out: concentration in Sham brain",6230 ± 436 ng/g
same,concentration at 10 min,"15 mg/kg i.v., Sham brain, 10 min, read-out: concentration in Sham brain",4900 ± 53.9 ng/g
same,concentration at 30 min,"15 mg/kg i.v., Sham brain, 30 min, read-out: concentration in Sham brain",2730 ± 256 ng/g
same,concentration at 1 h,"15 mg/kg i.v., Sham brain, 1 h, read-out: concentration in Sham brain",1580 ± 469 ng/g
same,concentration at 2 h,"15 mg/kg i.v., Sham brain, 2 h, read-out: concentration in Sham brain",268 ± 6.25 ng/g
same,concentration at 6 h,"15 mg/kg i.v., Sham brain, 6 h, read-out: concentration in Sham brain",18.7 ± 11 ng/g
same,concentration at 5 min,"15 mg/kg i.v., heart, 5 min, read-out: concentration in heart",5910 ± 825 ng/g
same,concentration at 10 min,"15 mg/kg i.v., heart, 10 min, read-out: concentration in heart",4590 ± 352 ng/g
same,concentration at 30 min,"15 mg/kg i.v., heart, 30 min, read-out: concentration in heart",4730 ± 2060 ng/g
same,concentration at 1 h,"15 mg/kg i.v., heart, 1 h, read-out: concentration in heart",1660 ± 335 ng/g
same,concentration at 2 h,"15 mg/kg i.v., heart, 2 h, read-out: concentration in heart",684 ± 199 ng/g
same,concentration at 6 h,"15 mg/kg i.v., heart, 6 h, read-out: concentration in heart",51.6 ± 11.9 ng/g
same,concentration at 5 min,"15 mg/kg i.v., liver, 5 min, read-out: concentration in liver",7160 ± 594 ng/g
same,concentration at 10 min,"15 mg/kg i.v., liver, 10 min, read-out: concentration in liver",5890 ± 528 ng/g
same,concentration at 30 min,"15 mg/kg i.v., liver, 30 min, read-out: concentration in liver",4710 ± 1130 ng/g
same,concentration at 1 h,"15 mg/kg i.v., liver, 1 h, read-out: concentration in liver",2960 ± 1030 ng/g
same,concentration at 2 h,"15 mg/kg i.v., liver, 2 h, read-out: concentration in liver",750 ± 249 ng/g
same,concentration at 6 h,"15 mg/kg i.v., liver, 6 h, read-out: concentration in liver",170 ± 36.1 ng/g
same,concentration at 5 min,"15 mg/kg i.v., serum, 5 min, read-out: concentration in serum",1190 ± 209 ng/mL
same,concentration at 10 min,"15 mg/kg i.v., serum, 10 min, read-out: concentration in serum",980 ± 203 ng/mL
same,concentration at 30 min,"15 mg/kg i.v., serum, 30 min, read-out: concentration in serum",472 ± 151 ng/mL
same,concentration at 1 h,"15 mg/kg i.v., serum, 1 h, read-out: concentration in serum",285 ± 29.1 ng/mL
same,concentration at 2 h,"15 mg/kg i.v., serum, 2 h, read-out: concentration in serum",79.6 ± 26.9 ng/mL
same,concentration at 6 h,"15 mg/kg i.v., serum, 6 h, read-out: concentration in serum",2.08 ± 1.12 ng/mL
same,concentration at 5 min,"ipsilateral ischemic hemisphere (IL brain), 15 mg/kg i.v. at reperfusion 1 h after MCAO, ipsilateral ischemic hemisphere, 5 min, read-out: concentration in IL brain",6650 ± 591 ng/g
same,concentration at 10 min,"ipsilateral ischemic hemisphere (IL brain), 15 mg/kg i.v. at reperfusion 1 h after MCAO, ipsilateral ischemic hemisphere, 10 min, read-out: concentration in IL brain",5799 ± 29.8 ng/g
same,concentration at 30 min,"ipsilateral ischemic hemisphere (IL brain), 15 mg/kg i.v. at reperfusion 1 h after MCAO, ipsilateral ischemic hemisphere, 30 min, read-out: concentration in IL brain",2890 ± 611 ng/g
same,concentration at 1 h,"ipsilateral ischemic hemisphere (IL brain), 15 mg/kg i.v. at reperfusion 1 h after MCAO, ipsilateral ischemic hemisphere, 1 h, read-out: concentration in IL brain",1750 ± 164 ng/g
same,concentration at 2 h,"ipsilateral ischemic hemisphere (IL brain), 15 mg/kg i.v. at reperfusion 1 h after MCAO, ipsilateral ischemic hemisphere, 2 h, read-out: concentration in IL brain",327 ± 57.2 ng/g
same,concentration at 6 h,"ipsilateral ischemic hemisphere (IL brain), 15 mg/kg i.v. at reperfusion 1 h after MCAO, ipsilateral ischemic hemisphere, 6 h, read-out: concentration in IL brain",11.7 ± 6.43 ng/g
same,half-life,"ipsilateral ischemic hemisphere (IL brain), 15 mg/kg i.v., IL brain",24.6 min
same,AUC(0-t),"ipsilateral ischemic hemisphere (IL brain), 15 mg/kg i.v., IL brain, tissue density assumed 1 g/ml",5140 ± 239 ng·h/mL
same,half-life,"15 mg/kg i.v., Sham brain",39 min
same,AUC(0-t),"15 mg/kg i.v., Sham brain, tissue density assumed 1 g/ml",4580 ± 276 ng·h/mL
same,half-life,"15 mg/kg i.v., heart",40.2 min
same,AUC(0-t),"15 mg/kg i.v., heart, tissue density assumed 1 g/ml",6480 ± 769 ng·h/mL
same,half-life,"15 mg/kg i.v., liver",42 min
same,AUC(0-t),"15 mg/kg i.v., liver, tissue density assumed 1 g/ml",8240 ± 852 ng·h/mL
same,AUC(0-t),"15 mg/kg i.v., serum",919 ± 82.2 ng·h/mL
same,half-life,"15 mg/kg i.v., serum",22.8 min
same,time effective concentration is maintained,single intravenous injection of 15 mg/kg,about 6 h

# Source: paper PMC9797592, “TJ-M2010-5, a novel CNS drug candidate, attenuates acute cerebral ischemia-reperfusion injury through the MyD88/NF-κB and ERK pathway” (Frontiers in Pharmacology, 2022)
